Like-named read-outs stand apart in the source and are kept apart here.

The subject of assay [1] is troponin. In words: Retention time in troponin high-performance liquid affinity chromatography (HPLAC) column, calcium dependent binding to troponin. Particulars: for Ratio Ca^2+ /EDTA (retention times in troponin-HPLAC column): Ca^2+ solution / EDTA solution; for Retention time in troponin-HPLAC column, Ca^2+ solution: mobile phase with 30 mM calcium; for Retention time in troponin-HPLAC column, Ca^2+ solution / Retention time in troponin-HPLAC column, EDTA solution: flow rate 1 ml/min; for Retention time in troponin-HPLAC column, EDTA solution: mobile phase without calcium (EDTA). On the procedure: The contraction in cardiac muscle and in vascular smooth muscle is triggered by the binding of calcium to troponin and to calmodulin, respectively. […] Commercially available troponin was coupled to the matrix of SelectiSpher-10™ Activated Tresyl silica HPLAC column (size 10 cm×5 mm). The compounds were run through the column with the flow rate 1 ml/min and detected by UV-spectrophotometrically.

In assay [2] the target is T1, cardiac phosphodiesterase III (PDEIII), dog (Canis lupus familiaris, UniProt A0A8I3NYE0).
T1 construct: enzyme preparation isolated from dog and guinea-pig heart; from tissue; host or cells: dog heart
T1 sequence (A0A8I3NYE0 1-1135): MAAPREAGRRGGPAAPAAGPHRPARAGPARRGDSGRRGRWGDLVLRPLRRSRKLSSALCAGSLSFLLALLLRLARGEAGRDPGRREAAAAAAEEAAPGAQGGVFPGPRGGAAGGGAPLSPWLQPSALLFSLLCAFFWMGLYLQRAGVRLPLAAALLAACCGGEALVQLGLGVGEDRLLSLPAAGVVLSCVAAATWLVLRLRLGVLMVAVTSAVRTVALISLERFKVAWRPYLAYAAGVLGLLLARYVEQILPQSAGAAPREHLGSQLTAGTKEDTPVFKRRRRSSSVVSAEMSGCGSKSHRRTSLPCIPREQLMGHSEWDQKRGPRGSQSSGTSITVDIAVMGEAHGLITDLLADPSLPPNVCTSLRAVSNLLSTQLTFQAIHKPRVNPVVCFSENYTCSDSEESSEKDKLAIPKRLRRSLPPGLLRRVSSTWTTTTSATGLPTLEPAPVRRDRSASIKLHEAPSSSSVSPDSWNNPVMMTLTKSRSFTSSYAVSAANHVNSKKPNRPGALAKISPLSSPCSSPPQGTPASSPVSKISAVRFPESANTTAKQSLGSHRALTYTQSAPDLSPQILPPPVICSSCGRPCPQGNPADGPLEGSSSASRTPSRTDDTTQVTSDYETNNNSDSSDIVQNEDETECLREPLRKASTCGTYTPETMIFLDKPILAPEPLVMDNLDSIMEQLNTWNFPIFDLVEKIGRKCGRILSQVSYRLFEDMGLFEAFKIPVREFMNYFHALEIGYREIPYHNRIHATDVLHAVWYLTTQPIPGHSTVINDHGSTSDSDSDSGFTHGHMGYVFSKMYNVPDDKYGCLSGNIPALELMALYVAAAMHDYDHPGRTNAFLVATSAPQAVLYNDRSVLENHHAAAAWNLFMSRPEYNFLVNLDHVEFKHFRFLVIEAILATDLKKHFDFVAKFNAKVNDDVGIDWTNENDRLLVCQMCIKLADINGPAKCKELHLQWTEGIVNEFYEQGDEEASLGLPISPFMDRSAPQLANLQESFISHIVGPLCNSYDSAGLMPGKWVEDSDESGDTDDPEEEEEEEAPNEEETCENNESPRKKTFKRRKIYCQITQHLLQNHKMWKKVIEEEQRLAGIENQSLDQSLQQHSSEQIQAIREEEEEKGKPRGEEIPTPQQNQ
In words: Inhibition of cardiac phosphodiesterase III, dog heart enzyme preparation. Particulars: dog heart; read-out: IC50-value, inhibition of cardiac phosphodiesterase III, Dog. Format: biochemical.

Assay [3] concerns guinea-pig papillary muscle. In words: Cardiotonic effect in isolated, electrically driven, right ventricular papillary muscle, without and with carbachol. Particulars: for EC50: Cavia porcellus, read-out: EC50 cardiotonic effect (A). On the procedure: The cardiotonic action of the compound was studied in isolated, electrically driven, right ventricular papillary muscle of guinea-pig.
A = experiments carried out without carbachol
B = experiments carried out in the presence of 10 μM carbachol

Assay [4] has as its system guinea-pig papillary muscle. In words: Ability to induce tonic contraction in papillary muscle in the absence of extracellular calcium. The following applies: drug concentration 100 μM; no extracellular calcium. On the procedure: The cardiotonic action of the compound was studied in isolated, electrically driven, right ventricular papillary muscle of guinea-pig. In order to compare the cardiotonic action based on PDEIII inhibition to that based on the other mechanisms the experiments were carried out in normal Tyrode's bathing solution (Otani et al., Japan. J. Pharmacol. 45, 425, 1987) and also in the solution with carbachol to eliminate the cardiotonic action due to the PDEIII inhibition (Alousi & Johnson, Circulation, 73 (suppl. III), 10-23, 1986).
C = ability to induce tonic contraction in the absence of extracellular
calcium; drug concentration 100 μM

Assay [5] deals with T2, cardiac phosphodiesterase III (PDEIII), guinea-pig (Cavia porcellus, UniProt H0VIU9).
T2 construct: enzyme preparation isolated from dog and guinea-pig heart; from tissue; host or cells: guinea-pig heart
T2 sequence (H0VIU9 1-1132): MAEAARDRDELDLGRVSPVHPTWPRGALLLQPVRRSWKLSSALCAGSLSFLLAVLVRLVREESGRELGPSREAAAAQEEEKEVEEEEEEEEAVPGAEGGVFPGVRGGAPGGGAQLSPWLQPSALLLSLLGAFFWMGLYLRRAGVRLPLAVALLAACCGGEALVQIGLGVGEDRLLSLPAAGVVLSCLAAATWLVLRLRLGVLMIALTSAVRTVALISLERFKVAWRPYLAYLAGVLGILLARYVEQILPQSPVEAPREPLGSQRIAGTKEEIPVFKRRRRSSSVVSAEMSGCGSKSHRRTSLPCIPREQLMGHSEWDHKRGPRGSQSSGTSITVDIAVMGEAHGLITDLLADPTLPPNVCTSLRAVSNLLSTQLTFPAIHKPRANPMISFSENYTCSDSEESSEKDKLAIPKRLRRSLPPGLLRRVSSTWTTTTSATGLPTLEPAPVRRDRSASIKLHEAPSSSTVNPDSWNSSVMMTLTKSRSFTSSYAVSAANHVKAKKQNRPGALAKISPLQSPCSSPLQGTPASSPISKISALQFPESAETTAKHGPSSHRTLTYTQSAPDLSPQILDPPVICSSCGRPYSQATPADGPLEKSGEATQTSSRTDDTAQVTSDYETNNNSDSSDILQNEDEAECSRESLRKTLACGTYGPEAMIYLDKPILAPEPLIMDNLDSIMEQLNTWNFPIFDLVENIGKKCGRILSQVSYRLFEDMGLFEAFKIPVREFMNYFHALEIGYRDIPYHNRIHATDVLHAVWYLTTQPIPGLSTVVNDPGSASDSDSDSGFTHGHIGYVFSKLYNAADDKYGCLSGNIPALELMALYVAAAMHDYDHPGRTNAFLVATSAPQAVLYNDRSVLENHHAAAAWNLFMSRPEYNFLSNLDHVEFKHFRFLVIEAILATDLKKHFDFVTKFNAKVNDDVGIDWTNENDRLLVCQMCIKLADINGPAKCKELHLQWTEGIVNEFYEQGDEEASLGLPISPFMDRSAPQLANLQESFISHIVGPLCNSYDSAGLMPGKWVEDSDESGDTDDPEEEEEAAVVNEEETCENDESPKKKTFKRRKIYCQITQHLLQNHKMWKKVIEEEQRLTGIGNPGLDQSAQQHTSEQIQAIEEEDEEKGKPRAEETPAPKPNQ
In words: Inhibition of cardiac phosphodiesterase III, guinea-pig heart enzyme preparation. Format: biochemical. The text has this: The PDEIII inhibition was studied by using enzyme preparation isolated from dog and guinea-pig heart according to Alajoutsijarvi and Nissinen (Anal. Biochem. 165, 128-132, 1987).

For orientation: IC50 means the concentration needed to halve the response being measured. By EC50 is commonly meant the concentration giving half of the maximal effect. Regarding `N#CC(C#N)=NNc1ccc(C2=NNC(=O)CC2)cc1` [Example 1, 6-[4-(1,1-dicyanomethylidenehydrazino)phenyl]-4,5-dihydropyridazin-3(2H)one], in assay [1], the “Ratio Ca^2+ /EDTA (retention times in troponin-HPLAC column)” value (shortened to “Ratio Ca^2+ /EDTA”) is reported as 1.59; the “Retention time in troponin-HPLAC column, Ca^2+ solution” value (“Retention time … Ca^2+ solution” for short) was 3.5 min; the “Retention time in troponin-HPLAC column, EDTA solution” value (from here on “Retention time … EDTA solution”) stood at 2.2 min. The IC50 in assay [2] turned out to be 270 nM. In addition, the EC50 in assay [3] came to 1800 nM. Besides, the “Ratio B/A of EC50” value in assay [3] (with 10 μM carbachol / without carbachol) worked out at 2.0. The “C: ability to induce tonic contraction in the absence of extracellular calcium” value (“C: ability … of extracellular calcium” for short) in assay [4] is reported as “yes”.

With `CC1CC(=O)NN=C1c1ccc(NN=C(C#N)C#N)cc1` (stereo not drawn) [Example 6, 6-[4-(1,1-dicyanomethylidenehydrazino)phenyl]-4,5-dihydro-5-methylpyridazin-3(2H)one], the IC50 in assay [2] stood at 62 nM. In assay [3], the EC50 stood at 170 nM.

`CC1CC(=O)NN=C1/C=C/c1ccc(NN=C(C#N)C#N)cc1` (stereo not drawn) [Example 33, (E)-6-[2-(4-(1,1-dicyanomethylidenehydrazino)phenyl)ethenyl]-4,5-dihydro-5-methylpyridazin-3(2H)one]: in assay [1], the “Ratio Ca^2+ /EDTA” value is listed as 1.69; the “Retention time … Ca^2+ solution” value came to 6.6 min; the “Retention time … EDTA solution” value is recorded as 3.9 min. This compound also registered an IC50 in assay [5] of 6 nM. For the same compound, in assay [3] (without carbachol), the EC50 worked out at 300 nM. In assay [4], the “C: ability … of extracellular calcium” value is “yes”.

On to `CC1SC(=O)NN=C1c1ccc(NN=C(C#N)C#N)cc1` (stereo not drawn) [Example 41, 5-[4-(1,1-dicyanomethylidenehydrazino)phenyl]-5,6-dihydro-6-methyl-1,3,4-thiadiazin-2(3H)one], for which, in assay [1], the “Ratio Ca^2+ /EDTA” value came out at 2.19; the “Retention time … Ca^2+ solution” value worked out at 10.5 min; the “Retention time … EDTA solution” value was 4.8 min. Further, the IC50 in assay [5] turned out to be 24 nM. For the same compound, the EC50 in assay [3] (without carbachol) worked out at 120 nM. In addition, in assay [4], the “C: ability … of extracellular calcium” value is on record as “yes”.

Take `CC1NC(=O)NN=C1c1ccc(NN=C(C#N)C#N)cc1` (stereo not drawn) [Example 43, 6-[4-(1,1-dicyanomethylidenehydrazino)phenyl]-4,5-dihydro-5-methyl-1,2,4-triazin-3(2H)one]: in assay [1], the “Ratio Ca^2+ /EDTA” value is on record as 2.00; the “Retention time … Ca^2+ solution” value is on record as 2.4 min; the “Retention time … EDTA solution” value is recorded as 1.2 min. In assay [5], the IC50 is 17 nM.

In turn, `N#CC(C#N)=NNc1ccc(C2=NNC(=O)SC2)cc1` [Example 44, 5-[4-(1,1-dicyanomethylidenehydrazino)phenyl]-5,6-dihydro-1,3,4-thiadiazin-2(3H)one] registered an IC50 in assay [5] of 51 nM. Further, the EC50 in assay [3] (without carbachol) amounted to 1100 nM. The “C: ability … of extracellular calcium” value in assay [4] was “yes”.

Turning to `N#CC(C#N)=NNc1ccc(C2=NNC(=O)NC2)cc1` [Example 45, 6-[4-(1,1-dicyanomethylidenehydrazino)phenyl]-4,5-dihydro-1,2,4-triazin-3(2H)one], in assay [1], the “Ratio Ca^2+ /EDTA” value is 2.33; the “Retention time … Ca^2+ solution” value worked out at 2.1 min; the “Retention time … EDTA solution” value amounted to 0.9 min.

Consider `N#CC(C#N)=NNc1ccc(C=CC2=NNC(=O)SC2)cc1` [Example 49, 5-[2-(4-(1,1-dicyanomethylidenehydrazino)phenyl)ethenyl]-5,6-dihydro-1,3,4-thiadiazin-2(3H)one], for which, in assay [1], the “Ratio Ca^2+ /EDTA” value was 2.30; the “Retention time … Ca^2+ solution” value worked out at 18.4 min; the “Retention time … EDTA solution” value was 8.0 min. The IC50 in assay [5] is 24 nM. For the same compound, the EC50 in assay [3] was 1100 nM. In assay [4], the “C: ability … of extracellular calcium” value was “yes”.

Consider `O=C1CCC(c2ccc(Nc3ccncc3)cc2)=NN1` [MCI-154, reference compound], for which, in assay [1], the “Ratio Ca^2+ /EDTA” value is reported as 0.52; the “Retention time … Ca^2+ solution” value was determined as 6.5 min; the “Retention time … EDTA solution” value amounted to 12.4 min. For the same compound, in assay [2], the IC50 stood at 420 nM.

Turning to `CC1(C)C(=O)Nc2cc3[nH]c(-c4ccncc4)nc3cc21` [adibendan, reference compound], in assay [1], the “Ratio Ca^2+ /EDTA” value was determined as 0.99; the “Retention time … Ca^2+ solution” value was found to be 14.8 min; the “Retention time … EDTA solution” value is reported as 15.0 min. Moreover, the IC50 in assay [2] turned out to be 1000 nM.

For the compound `COc1ccc(-c2nc3ccc(C4=NNC(=O)CC4C)cc3[nH]2)cc1` (stereo not drawn) [pimobendan, reference compound], in assay [1], the “Ratio Ca^2+ /EDTA” value worked out at 0.88; the “Retention time … Ca^2+ solution” value is reported as 70.4 min; the “Retention time … EDTA solution” value is recorded as 79.6 min. Moreover, in assay [2], the IC50 was determined as 1750 nM. The EC50 in assay [3] (without carbachol) is 3300 nM. Besides, the “C: ability … of extracellular calcium” value in assay [4] is recorded as “no”.
